Data set [1] concerns HEK cells. Kind of data set: Cytotoxicity assay, ALAMARBLUE, HEK cells. To be noted: HEK cells with or without LASVpv, ALAMARBLUE
A general note: The colour change of resazurin is a common sign of viable cells or microbes.

Data set [2] can be described thus: Cytotoxicity assay, ALAMARBLUE, HEK cells.
Another data set relates to H3N2 influenza virus. To be noted: influenza virus.
For data set [3], the system named is Lassa pseudovirus (LASVpv). The conditions noted are these: 72 h.
Another data set relates to human adenovirus 5. To be noted: read-out: EC50 against adenovirus (AdV); plaque assay.
The next data set has as its system dengue virus type 2. To be noted: read-out: EC50 against dengue virus (DENV); plaque assay.
Data set [4] relates to HEK cells. As to the kind of experiment: Cytotoxicity with varying cell densities, HEK cells. To be noted: 5×10^3 to 1×10^5 cells/well.
The test system of a further data set is Vero E6 cells. As to the kind of experiment: Cytotoxicity assay, CELLTITER-GLO, Vero E6 cells. To be noted: peptide concentrations at or below 2 μM, about 72 hours. On the technique in general: Cellular ATP, detected with luciferase, serves as a proxy for viable cell number.
The test system of data set [5] is herpes simplex virus type 1. The conditions noted are these: read-out: EC50 against herpes simplex virus (HSV); plaque assay.
In data set [6] the test system is Lassa pseudovirus (LASVpv). The conditions noted are these: 1 h.
Data set [7] concerns HEK cells. Kind of data set: Cytotoxicity with varying serum (FBS) concentrations, HEK cells. The conditions noted are these: for effect of serum concentration on cytotoxicity: 0-50% FBS.
The test system of another data set is HEK 293T/17 cells. As to the kind of experiment: Cytotoxicity assay, CELLTITER-GLO, HEK cells. The conditions noted are these: CELLTITER-GLO, 3 days.

Entries after “also recorded” stand apart in the source; their conditions may differ. Where two headings read alike, the source gives them in different places. Ends that are not written are not given here.

In general, EC50 refers to the concentration needed to bring the measured effect to its halfway point. On to RRGFSLKLLLSYRGWALLRLGYGRR-NH2 [IT1-a], for which the “cell viability in the presence and absence of virus” value (from here on “cell viability … of virus”) in the data set on HEK cells [1] was “varies in the presence and absence of virus”. Further, the EC50 stood at 19000 nM in [2], 1600 nM in the data set with H3N2 influenza virus and 1600 nM in [3].
Take RRGWLLLRLLRLLLRLLWGRR-NH2 [AHR]: the EC50 in the data set on human adenovirus 5 is 1100 nM; in the data set with dengue virus type 2, 310 nM; in data set [5], 157 nM; in data set [6], less than 10000 nM. In addition, the “effect of cell density on cytotoxicity” value in the data set on HEK cells [4] is “increases as cell density increases”. In addition, in the data set with Vero E6 cells, the “cell viability, Vero E6 cells” value is “High cell viability”. In [6], the “inhibition of LASVpv at 50 μM peptide” value is given as “approximately 100%”. For the same substance, the “effect of serum concentration on cytotoxicity” value (shortened to “effect of serum concentration”) in the data set with HEK cells [7] was “cytotoxic in all serum concentrations at high peptide concentrations”.
For the substance “RRGWALRLNLYYGRR-NH2 [*ARNY*, RRGWALRLNLYYGRR]”, the “cell viability … of virus” value in the data set on HEK cells [1] is reported as “no difference”. In addition, the EC50 in data set [2] was greater than 100000 nM; in the data set on H3N2 influenza virus, 4500 nM; in data set [3], 2200 nM.
In the case of “RRGWLLLRLLLWGRR-NH2 [TL3, RRGWLLLRLLLWGRR]”, the “effect of cell density on cytotoxicity” value with HEK cells [4] is given as “increases as cell density increases”. Further, the “cell viability, Vero E6 cells” value in the data set on Vero E6 cells is “High cell viability”. For the same substance, in the data set on HEK cells [7], the “cytotoxicity in 0% FBS” value is reported as “does display cytotoxicity”; the “cytotoxicity in 10%, 25%, and 50% FBS” value was “completely noncytotoxic”.
In the case of “RRGWNLALTLTYGRR-NH2 [*NATT*, RRGWNLALTLTYGRR]”, the “cell viability … of virus” value in the data set on HEK cells [1] is listed as “no difference”. The values for the EC50 (in [2]; in the data set on H3N2 influenza virus; in data set [3]) were 43000 nM, 700 nM and 1200 nM, respectively.
Consider “RRWLLLLRLLLLWRR-NH2 [TL4dG, RRWLLLLRLLLLWRR]”, for which the “cytotoxicity against HEK cells” value with HEK 293T/17 cells was “less cytotoxic than TL3”.
Turning to RRGFSLKLALLKDGWLLLRLGYGRR-NH2 [IT1-b], the “cell viability … of virus” value in the data set with HEK cells [1] was “varies in the presence and absence of virus”. Also, the EC50 in [2] is greater than 75000 nM; in the data set on dengue virus type 2, 225 nM; in the data set on H3N2 influenza virus it was 2300 nM; in data set [3] it was 1400 nM. The “effect of cell density on cytotoxicity” value in the data set with HEK cells [4] is recorded as “remained consistent as cell density increases”. Moreover, the “cell viability, Vero E6 cells” value in the data set with Vero E6 cells was “High cell viability”. The “effect of serum concentration” value in the data set on HEK cells [7] was “far less cytotoxic as serum concentration increases”.
On to “RRWLLLLNLLLLWRR-NH2 [TL4NdG, RRWLLLLNLLLLWRR]”, for which, in the data set with human adenovirus 5, the EC50 is greater than 10000 nM. Further, the “cytotoxicity against HEK cells” value in the data set with HEK 293T/17 cells is recorded as “least cytotoxic test peptide; also recorded: much less cytotoxic than TL3; also recorded: least cytotoxic peptide tested”. Further, the “effect of cell density on cytotoxicity” value in the data set with HEK cells [4] is recorded as “remained consistent as cell density increases”. Also, the “cell viability, Vero E6 cells” value in the data set with Vero E6 cells was “High cell viability”. In addition, in data set [6], the “inhibition of LASVpv at 50 μM peptide” value is on record as “greater than 50%”. Moreover, the “effect of serum concentration” value with HEK cells [7] was “essentially unchanged by serum concentration”.

The values are drawn from patent publication US20230220010A1, “BROAD-SPECTRUM ANTIVIRAL PEPTIDES” (priority 2020, published 2023).
